Source: patent publication EP2067771A1, “Derivatives of Dihydroxypyrrolidine as Anti-Cancer Compounds” (EPFL Ecole Polytechnique Fédérale de Lausanne, priority 2007, dated 2009)
Like-named read-outs stand apart in the source and are kept apart here.

What was measured:
glioblastoma cell growth = conditions: H. Fiaux et al., J. Med. Chem. 2005; cited from earlier work
U87 = assay: Viability assay (CellTiter 96 Aqueous1), cell growth inhibition; assay type: cell-based; conditions: Homo sapiens, U-87 MG
Experimental: (§1) Cell lines and reagents. The tumor cell lines used for the in vitro evaluation of cell growth inhibition by dihydroxypirolidine derivatives were U87 (glioblastoma), PC3 (prostate cancer), A549 (lung carcinoma), MDA-MB231, MCF7, BT474, and SKBR3 (breast cancer). Cells were grown in 10-cm culture dishes with McCoy medium containing 10% fetal calf serum (FCS) and antibiotics at 37°C and 5% CO2. The dihydroxypirolidine derivatives CB161, CB181, and CB183 were weighted and dissolved in DMSO to prepare a stock solution concentrated 100 mM.
(§2) Viability assays. For the viability assays, 5 x 10^4 cells/well were plated in 200 µl medium in 96 well plates. 48 hours later, the dihydroxypirolidine derivatives were added to the wells at concentrations ranging between 10^-2 and 400 µM, such that the vehicle DMSO never exceeded 0.4%. Each drug concentration was tested in duplicate. Viability was determined 72 hours later using CellTiter 96 Aqueous1 (Promega) according to the manufacturer's instructions. Incubation times with CellTiter96 Aqueous1 ranged between 2 and 4 hours. Plates were read with a spectrophotometer (Labsystems iEMS Reader MF) at 490 nm wave length. IC50s were estimated using GraphPad Prism4.

[1] = test system: seven established human tumor cell lines; assay: Viability assay, panel of seven tumor cell lines; assay type: cell-based; conditions: all the cell lines tested
Experimental: as §1, §2

PC3 = assay: Viability assay (CellTiter 96 Aqueous1), cell growth inhibition; assay type: cell-based; conditions: Homo sapiens, PC-3; PC3 (prostate cancer), viability 72 hours after addition
Experimental: as §1, §2

MDA-MB-231 = assay: as above; assay type: cell-based; conditions: Homo sapiens; MDA-MB-231 (breast cancer), viability 72 hours after addition
Experimental: as §1, §2

BT474 = assay: as above; assay type: cell-based; conditions: Homo sapiens, BT-474; BT474 (breast cancer), viability 72 hours after addition
Experimental: as §1, §2

MCF7 = assay: as above; assay type: cell-based; conditions: Homo sapiens; MCF7 (breast cancer), viability 72 hours after addition
Experimental: as §1, §2

A549 = assay: as above; assay type: cell-based; conditions: Homo sapiens; A549 (lung carcinoma), viability 72 hours after addition
Experimental: as §1, §2

SKBR3 = assay: as above; assay type: cell-based; conditions: Homo sapiens, SK-BR-3; SKBR3 (breast cancer), viability 72 hours after addition
Experimental: as §1, §2

human glioblastoma cells = conditions: S. Favre et al., Heterocycles 2006; cited from earlier work
[2] = refers to Figure 8 (U87 glioblastoma), read-out: IC50s (growth inhibition effects)

For `O[C@H]1[C@H]2[C@H](O)CCCN2C[C@H]1O` [swainsonine], the “inhibitory effect on glioblastoma cell growth” value (glioblastoma cell growth) is listed as “only little inhibitory effect”.
For `C=CCOc1ccc([C@H](CO)NC[C@H]2NC[C@H](O)[C@@H]2O)cc1` [CB181, (2R,3R,4S)-2{{{(1R)-2-hydroxy-1-[4-(prop-2-enyloxy)phenyl]ethyl}amino}methyl} pyrrolidine-3,4-diol], the IC50 (U87; [2]) was greater than 200 µM.
With `OC[C@H](NC[C@H]1NC[C@H](O)[C@@H]1O)c1ccc(-c2ccc(C(F)(F)F)cc2)cc1` [CB183, (2R,3R,4S)-2-{{{(1R)-2-hydroxy-1-[4'-(trifluoromethyl)-[1,1'-biphenyl]-4-1]ethyl}amino}methyl}pyrrolidine-3,4-diol] the “potent cytotoxic activity for concentrations” value [1] was less than 200 µM, the IC50 (PC3) was 132 µM and the IC50 (U87; U87 (glioblastoma), viability 72 hours after addition, read-out: IC50) was 80 µM. It also gave an IC50 (MDA-MB-231) of 65.8 µM, an IC50 (BT474) of 93.3 µM and an IC50 (MCF7) of 76.7 µM. For the same molecule, the IC50 (A549) was 152 µM and the IC50 (SKBR3) was 48.3 µM.
For `OC[C@H](NC[C@H]1NC[C@H](O)[C@@H]1O)c1ccc(-c2ccccc2)cc1` [CB161], the IC50 (U87; [2]) was greater than 200 µM.
For `O=C(NC[C@H](NC[C@H]1NC[C@H](O)[C@@H]1O)c1ccccc1)c1cccc(Br)c1` [N-[(2R)-2-({[(2R,3R,4S)-3,4-dihydroxypyrrolidin-2-yl]methyl}amino)-2-phenylethyl]-3-bromobenz-amide], the “inhibition of human glioblastoma cells” value (human glioblastoma cells) is listed as “convincing inhibition”.
